The supplement of paper PMC10307832

Columns and labels:
Test in all cases: relative viability (nuclei count vs DMSO), 5 days (fraction); higher = more cells survive
[1] = compound: C1CNCCC1C2=CC(=NN2)C3=CC=NC=C3 + CC(C)C[C@H](NC(=O)[C@H](Cc1ccccc1)NC(=O)c1cnccn1)B(O)O [Bortezomib] (partner 0.002 µM)
Outline: (§1)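 Relative viability divides the nuclei count in treated wells by that in vehicle wells. Lung cancer cell lines were seeded in 1536-well plates, dosed by pin tool the next day, and fixed and stained after 5 days in one step with final 0.05% Triton X-100, 1% formaldehyde and 1 ug/ml Hoechst. Dosing was a single drug or a fixed anchor-drug dose plus five library-drug doses (not always all listed) in √10 steps, and values are medians of duplicate plates imaged at 4×.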

[2] = compound: C1CNCCC1C2=CC(=NN2)C3=CC=NC=C3 + C[C@]1(O)C[C@@H](c2nc(-c3ccc4ccc(-c5ccccc5)nc4c3)c3c(N)nccn32)C1 [Linsitinib] (partner 1 µM)
Outline: as §1

[3] = compound: C1CNCCC1C2=CC(=NN2)C3=CC=NC=C3 + N=C(N)NC(=N)NCCc1ccccc1 [Phenformin] (partner 250 µM)
Outline: as §1

Tanzisertib + Dasatinib = compound: O[C@H]1CC[C@H](Nc2ncc3nc(Nc4c(F)cc(F)cc4F)n([C@H]4CCOC4)c3n2)CC1 [Tanzisertib] + Cc1nc(Nc2ncc(C(=O)Nc3c(C)cccc3Cl)s2)cc(N2CCN(CCO)CC2)n1 [Dasatinib] (partner 0.075 µM)
Outline: as §1

Cell Line | relative viability ([1]; first compound 0.08 µM) | relative viability ([1]; first compound 0.8 µM) | relative viability ([1]; first compound 2.53 µM) | relative viability ([1]; first compound 8 µM) | relative viability ([2]; first compound 0.08 µM) | relative viability ([2]; first compound 0.8 µM) | relative viability ([2]; first compound 2.53 µM) | relative viability ([2]; first compound 8 µM) | relative viability ([3]; first compound 0.08 µM) | relative viability ([3]; first compound 0.8 µM) | relative viability ([3]; first compound 2.53 µM) | relative viability ([3]; first compound 8 µM) | relative viability (Tanzisertib + Dasatinib; first compound 0.08 µM) | relative viability (Tanzisertib + Dasatinib; first compound 0.253 µM) | relative viability (Tanzisertib + Dasatinib; first compound 0.8 µM) | relative viability (Tanzisertib + Dasatinib; first compound 2.53 µM) | relative viability (Tanzisertib + Dasatinib; first compound 8 µM)
LU99A | 1.1 | 1.26 | 1.35 | 1.08 | 0.53 | 0.579 | 0.551 | 0.513 | 0.748 | 0.877 | 0.956 | 0.874 | 0.585 | 0.629 | 0.556 | 0.557 | 0.496
201T | 1.06 | 1.07 | 1.08 | 1.1 | 1.02 | 1.01 | 0.996 | 1.04 | 0.434 | 0.464 | 0.461 | 0.415 | 0.546 | 0.608 | 0.537 | 0.496 | 0.582
HCC-827 | 1 | 1.02 | 1.06 | 1.01 | 0.992 | 0.963 | 1.05 | 0.956 | 0.375 | 0.392 | 0.414 | 0.358 | 0.457 | 0.26 | 0.35 | 0.201 | 0.105
NCI-H1666 | 0.865 | 0.724 | 0.959 | 0.962 | 0.758 | 0.748 | 0.862 | 0.814 | 0.571 | 0.587 | 0.561 | 0.553 | 0.821 | 0.843 | 0.755 | 0.841 | 0.955
NCI-H1915 | 1 | 0.977 | 0.932 | 0.934 | 1.05 | 1.14 | 1.1 | 1.11 | 0.376 | 0.389 | 0.346 | 0.377 | 0.319 | 0.316 | 0.321 | 0.301 | 0.283
NCI-H2009 | 1.04 | 0.989 | 1.09 | 0.99 | 1.2 | 1.18 | 1.25 | 1.22 | 0.481 | 0.528 | 0.51 | 0.489 | 0.324 | 0.318 | 0.296 | 0.308 | 0.24
COR-L 105 | 0.737 | 0.746 | 1.01 | 0.851 | 0.986 | 0.896 | 0.965 | 0.926 | 0.541 | 0.419 | 0.508 | 0.528 | 0.397 | 0.356 | 0.297 | 0.354 | 0.255
SW 1573 | 0.75 | 1.22 | 1.11 | 1.12 | 0.815 | 0.786 | 0.902 | 0.952 | – | 0.365 | 0.376 | 0.471 | 0.595 | 0.662 | 0.46 | 0.552 | 0.513
NCI-H1975 | 0.396 | 0.423 | 0.479 | 0.369 | 0.952 | 1.14 | 0.917 | 0.97 | 0.406 | 0.412 | 0.415 | 0.417 | 0.421 | 0.446 | 0.365 | 0.356 | 0.329
NCI-H3122 | 0.989 | 1.04 | 1.04 | 0.965 | 0.981 | 0.981 | 1.06 | 1.04 | 0.329 | 0.414 | 0.402 | 0.364 | 0.775 | 0.817 | 0.791 | 0.92 | 0.926
NCI-H2347 | 0.937 | 0.951 | 1.05 | 0.969 | 0.916 | 0.961 | 1.06 | 0.936 | 0.398 | 0.225 | 0.412 | 0.48 | 0.333 | – | 0.309 | 0.26 | 0.303
HCC-78 | 0.439 | 0.405 | 0.467 | 0.619 | 0.446 | – | 0.513 | 0.61 | 0.695 | 0.56 | 0.68 | 0.719 | 0.469 | 0.54 | 0.3 | 0.325 | 0.255
COR-L23 | 0.872 | 0.993 | 0.95 | 0.981 | 0.931 | 1.05 | 0.984 | 0.918 | 0.429 | 0.465 | 0.469 | 0.431 | 0.527 | 0.473 | 0.491 | 0.494 | 0.396
NCI-H1993 | 1.02 | 0.999 | 1.21 | 1.34 | 0.748 | 0.67 | 0.732 | 0.798 | 0.497 | 0.488 | 0.547 | 0.533 | 0.631 | 0.656 | 0.709 | 0.526 | 0.479
NCI-H2405 | 0.94 | 0.658 | 1.02 | 1 | 0.979 | 0.771 | 1.07 | 0.913 | 0.44 | 0.285 | 0.385 | 0.383 | 0.228 | 0.225 | 0.195 | 0.227 | 0.188
NCI-H2126 | 1.1 | 1.12 | 1.16 | 1.12 | 0.718 | 0.636 | 0.789 | 0.748 | 0.483 | 0.51 | 0.556 | 0.577 | 0.614 | 0.626 | 0.614 | 0.628 | 0.572

Cell Line | relative viability ([1]; first compound 0.08 µM) | relative viability ([1]; first compound 0.8 µM) | relative viability ([1]; first compound 2.53 µM) | relative viability ([1]; first compound 8 µM) | relative viability ([2]; first compound 0.08 µM) | relative viability ([2]; first compound 0.8 µM) | relative viability ([2]; first compound 2.53 µM) | relative viability ([2]; first compound 8 µM) | relative viability ([3]; first compound 0.08 µM) | relative viability ([3]; first compound 0.8 µM) | relative viability ([3]; first compound 2.53 µM) | relative viability ([3]; first compound 8 µM) | relative viability (Tanzisertib + Dasatinib; first compound 0.08 µM) | relative viability (Tanzisertib + Dasatinib; first compound 0.253 µM) | relative viability (Tanzisertib + Dasatinib; first compound 0.8 µM) | relative viability (Tanzisertib + Dasatinib; first compound 2.53 µM) | relative viability (Tanzisertib + Dasatinib; first compound 8 µM)
NCI-H1734 | 0.97 | 1.04 | 1.21 | 1.03 | 0.845 | 0.885 | 0.908 | 0.811 | 0.348 | 0.421 | 0.36 | 0.401 | 0.47 | 0.449 | 0.459 | 0.473 | 0.444
A-427 | 1.03 | 0.955 | 1.06 | 0.935 | 1.09 | 1.09 | 1.15 | 1.07 | 0.375 | 0.38 | 0.323 | 0.299 | 0.778 | 0.684 | 0.65 | 0.646 | 0.808
RERF-LC-KJ | 1.09 | 1.22 | 1.16 | 1.12 | 0.925 | 0.931 | 0.903 | 0.903 | 0.391 | 0.429 | 0.438 | 0.406 | 0.95 | 0.814 | 0.912 | 0.685 | 0.744
NCI-H727 | 0.842 | 0.829 | 1.14 | 0.911 | 0.362 | 0.338 | 0.294 | 0.21 | 0.529 | 0.468 | 0.619 | 0.631 | 0.489 | 0.286 | 0.403 | 0.349 | 0.271
LCLC-97TM1 | 0.668 | 0.666 | 0.796 | 0.444 | 0.142 | 0.183 | 0.201 | 0.211 | 0.328 | 0.511 | 0.437 | 0.396 | 0.953 | 0.878 | 0.831 | 0.786 | 0.901
BEN | 0.724 | 0.592 | 0.852 | 0.96 | 0.689 | 0.984 | 0.921 | 0.913 | 0.312 | 0.172 | 0.243 | 0.271 | 0.306 | 0.374 | 0.442 | 0.355 | 0.32
NCI-H2023 | 0.793 | 0.958 | 1.24 | 0.983 | 0.62 | 0.671 | 0.629 | 0.647 | 0.357 | 0.411 | 0.498 | 0.423 | 0.677 | 0.616 | 0.536 | 0.606 | 0.497
LC-2-ad | 1.07 | 1.52 | 0.994 | 0.944 | 0.805 | 0.825 | 0.909 | 0.869 | – | 0.676 | 0.639 | 0.612 | 0.789 | 0.642 | 0.686 | 0.684 | 0.403
ABC-1 | 0.329 | 0.253 | 0.332 | 0.351 | 0.702 | 0.644 | 0.685 | 1.01 | 0.244 | 0.195 | 0.259 | 0.257 | 0.586 | 0.604 | 0.523 | 0.614 | 0.597
NCI-H647 | 0.935 | 0.796 | 1.07 | 0.86 | 1.28 | 1.45 | 1.38 | 1.09 | 0.44 | 0.487 | 0.52 | 0.533 | 0.226 | 0.201 | 0.142 | 0.189 | 0.149
NCI-H1755 | 0.991 | 0.943 | 1.04 | 0.932 | 1.01 | 0.966 | 0.969 | 0.916 | 0.631 | – | 0.688 | 0.553 | 0.408 | 0.46 | 0.488 | 0.464 | 0.333
EPLC-272H | 0.971 | 0.913 | 0.965 | 0.993 | 1.15 | 1.15 | 1.22 | 1.17 | 0.317 | 0.299 | 0.35 | 0.396 | 0.416 | 0.373 | 0.367 | 0.359 | 0.333
NCI-H1437 | 0.495 | 0.607 | 0.552 | 0.462 | 0.986 | 1.03 | 1.16 | 1.05 | 0.34 | 0.313 | 0.298 | 0.299 | 0.527 | 0.465 | 0.393 | 0.365 | 0.439
EKVX | 1.21 | 0.585 | 1.07 | 1.04 | 1.06 | 0.865 | 1.13 | 0.984 | 0.269 | 0.209 | 0.255 | 0.209 | 0.467 | 0.565 | 0.55 | 0.503 | 0.411
NCI-H1651 | 0.907 | 0.923 | 1.02 | 0.949 | 0.923 | 0.977 | 0.966 | 1.14 | 0.351 | 0.3 | 0.333 | 0.344 | 0.378 | 0.522 | 0.378 | 0.336 | 0.417
